Laboratory results reported in patent publication US20080287486A1, “Prokinetic agent for bowel preparation” (Theravance, Inc., priority 2007, published 2008).

System: healthy subjects
Assay: Measurement of onset of bowel movement in healthy subjects (stool diary card, rising single doses)
Type: in vivo, human
Settings: for Mean Number of Bowel Movements / Median Time to First Bowel Movement: first 24 hour post dosing period; for Mean Number of Bowel Movements: standard deviation in parentheses; for Median Time to First Bowel Movement: gelatin capsules; for average Bristol score (stool consistency, 1 hard pellets to 7 liquid): placebo 3.2 (0.7)
Protocol: Subjects were monitored for safety and evidence of prokinetic effects using a stool diary card. Time and consistency (Bristol score) of each bowel movement were recorded.

CC(C)n1c(=O)c(C(=O)N[C@H]2C[C@H]3CC[C@@H](C2)N3C[C@@H](O)CN(C)S(C)(=O)=O)cc2ccccc21.Cl [prokinetic agent, 1-isopropyl-2-oxo-1,2-dihydroquinoline-3-carboxylic acid {(1S,3R,5R)-8-[(R)-2-hydroxy-3-(methanesulfonyl-methyl-amino)propyl]-8-aza-bicyclo[3.2.1]oct-3-yl}amide hydrochloride]
Mean Number of Bowel Movements (10 mg dose): 2.1 (1.2) | Median Time to First Bowel Movement (10 mg dose): 1.6 h | Mean Number of Bowel Movements (20 mg dose): 2.0 (1.5) | Median Time to First Bowel Movement (20 mg dose): 1.0 h | Mean Number of Bowel Movements (30 mg dose): 3.6 (2.4) | Median Time to First Bowel Movement (30 mg dose): 1.1 h | Mean Number of Bowel Movements (50 mg dose): 5.9 (3.9) | Median Time to First Bowel Movement (50 mg dose): 1.1 h | average Bristol score (stool consistency, 1 hard pellets to 7 liquid) (50 mg dose): 5.6 (0.9) | Mean Number of Bowel Movements (70 mg dose): 6.0 (3.0) | Median Time to First Bowel Movement (70 mg dose): 0.9 h | average Bristol score (stool consistency, 1 hard pellets to 7 liquid) (plateau at 20-70 mg): 5.4-6.0 | time at which the effect dissipated post dosing (post dosing): 24 to 48 h
